Measurements as given in patent publication EP4567040A1, “CRYSTAL FORM OF FUSED TRICYCLIC DERIVATIVE AND PREPARATION METHOD” (Jiangsu Hengrui Pharmaceuticals Co., Ltd., priority 2022, dated 2024).

System: DPX2 (HepG2 cells were stably transfected with the human PXR gene and the fluorescent reporter gene) cells
Test: Cell viability in the PXR induction assay (CellTiter-Fluor)
Format: cell-based
Description: • 1. The potential of the test compounds to induce the activity of drug metabolism enzymes through in vitro activation of PXR was evaluated. […] […] Experimental procedures • 3.1. Preparation for plating • 1) 50 mL of FBS was added to 450 mL of cell culture medium. • 2) DPX2 cells were cultured in a T-75 culture flask in a 37 °C, 5% CO2 incubator with 95% relative humidity. When covering 80-90% of the bottom of the culture flask, the cells were digested. • 3) The top layer of cells cultured in the T-75 culture flask was washed with 8 mL of PBS, and the PBS was pipetted off. The cells were digested with 3 mL of pancreatin at 37 °C for about 5 min or until they were floating in the pancreatin. 10 mL (excessive) of a serum-containing culture medium was added to neutralize the pancreatin. • 4) The cell suspension was transferred to a conical-bottomed centrifuge tube and centrifuged at 120 g for 10 min. The cells were suspended in the plating culture medium, and the concentration was adjusted to 4 × 10^5 cells/mL. The diluted cells were added to a 96-well cell culture plate at 100 µL/well. The culture plate was placed in an incubator and incubated at 37 °C for 24 h before the PXR activation experiment. • 3.2. […] […] The final concentration of DMSO was 0.1%. 1 µL of DMSO was added to a well containing 1 mL of pre-incubated culture medium as a solvent control. • 2) The cell culture plate was taken out of the incubator, and the culture medium was discarded. The test compounds and the positive compound were added to appropriate wells at 100 µL/well, and each group was tested in duplicate. The cell plate was placed in an incubator and incubated for 24 h. • 3.3. Quantification of PXR activation • 1) After […] of compound treatment, PXR activation was quantified for the culture. • 2) The CellTiter-Fluor™ cell viability assay kit and the One-Glo Luciferase reagent were equilibrated to room temperature. The GF-AFC (10 µL) substrate was added to Assay Buffer (10 mL) to form a 2× reagent, and the reagent was then diluted to 1× with 10 mL of PBS; the ONE-Glo substrate was added to the ONE-Glo Luciferase Assay buffer. • 3) The cell culture plate was taken out of the incubator, and the culture medium in each well was discarded. The plate was washed twice with PBS. The 1× CellTiter-Fluor™ reagent was added to a sterilized reagent reservoir, and 50 µL was transferred to each well using a multi-channel pipette. The plate was incubated at 37 °C for 30 min. • 4) The 96-well cell plate was taken out of the incubator, and the fluorescence in each well was measured using a microplate reader put in the fluorescence mode at an excitation wavelength of 400 nm and an emission wavelength of 505 nm. • 5) The ONE-Glo reagent was poured into a reagent reservoir, and then 50 µL was transferred to each well using a multi-channel pipette. The reagent was gently and well mixed, and the mixture was incubated and well mixed at room temperature for 5 min. After the incubation, the luminescence in each well was measured using a luminometer.
The calculation formula for cell viability: Percent cell viability (%) = I(sample)/(I(vehicle) × 100 [formula]
I(sample) represents the fluorescence intensity of the sample, and I(vehicle) represents the fluorescence intensity of 0.1% DMSO to cells.

CO[C@H]1/C=C/O[C@@]2(C)Oc3c(C)c(O)c4c(O)c(c(/C=N/N5CCN(C)CC5)c(O)c4c3C2=O)NC(=O)/C(C)=C\C=C\[C@H](C)[C@H](O)[C@@H](C)[C@@H](O)[C@@H](C)[C@H](OC(C)=O)[C@@H]1C [Rifampicin, reference compound]
Cell viability (%) (compound concentration 0.0195 µM): 103.39%
Cell viability (%) (compound concentration 20.0 µM): 93.07%
